Measurements reported in US8541462B2, “Tetrahydrocarbazole derivatives as ligands of G-protein coupled receptors” (AEterna Zentaris GmbH, priority 2007, dated 2013).
Counter-ions that a name gives are not always drawn.

Experiments:
[1] = Pharmacokinetic study (oral, cannulated rats, LC/MS of plasma); type: in vivo, rat
Protocol: Adult male Wistar rats weighing 278-290 g (Jinvier, France) were used in the study. Animals were housed in a temperature-controlled room (20-24° C.) and maintained in a 12 h light/12 h dark cycle. Food and water were available ad libitum.
For surgery, rats were anaesthetised with a ketamine (90 mg/kg)/xylazine (10 mg/kg) mixture, and cannulated with silicone tubing via the right jugular vein. Prior to the first blood sampling, animals were connected to a counterbalanced system and tubing to perform blood sampling in the freely moving rat.
Separate stock solutions (5 mg/ml) of compound 52 of the invention and prior art substance WO 2006/005484—substance 76 were prepared in Solutol HS 15/PEG300 (3:1). The whole process was performed under constant stirring. Half of the volume of the vehicle was added first. After sonication (5 minutes), the second half of the vehicle was added and the vials were again sonicated. All the solutions were clear and free of particles or agglomerates.
Immediately before application, the dosing mixture was prepared by adding equal volumes of the stock solutions to end up with a final concentration of 1 mg/ml for each compound. The mixture was applied orally to rats with an application volume of 5 ml/kg.
Blood samples (200 μl) were taken 1 hour before application and 1, 2, 4, 6, 8, 12 and 24 hours after. They were centrifuged at 650 g for 10 minutes at 4° C. and then the plasma was harvested and kept at −20° C. until LC/MS analysis.

[2] = Metabolic stability testing in liver microsomes; type: in vitro ADME; settings: mixed-gender human liver microsomes, 1 mg microsomal protein/mL, initial concentration 10 μM, 60 minutes at 37° C.; WO 2006/005484-substance 7 = 100%
Protocol: Subcellular fractions of different tissues can be prepared easily by ultracentrifugation. Most commonly these are prepared from the liver of animals and human donors to gain information about the potential hepatic clearance of compounds (first-pass elimination of drugs). Human or animal (e.g. dog, mouse, rat) subcellular fraction like liver microsomes, or possibly the fraction called S9 have therefore become a very commonly and widely used as an in vitro model to investigate mainly cytochrome P450 dependent phase I (but also phase II) metabolism that takes place in the liver.
In order to reflect the standard proportion of the enzymes in human and animal livers, liver microsomes are usually pooled from a number of […] of the same sex (or mixed-gender). By supplementing the liver microsomes with relevant cofactors and other components it is possible to investigate and distinguish between CYPs, flavin-containing monooxygenase (FMO) and UDP-glucuronosyltransferase (UGT) activities.
Selected compounds of the invention were tested for their stability in mixed-gender human liver microsomes and compared to pertinent prior art compounds.
Under the test conditions applied (1 mg microsomal protein/mL, initial concentration of 10 μM, and incubation for 60 minutes at 37° C.) the following normalized results were obtained.

[3] = target: T1, LHRH receptor (endogenous GnRH receptor of alpha T3-1 cell line) (Mus musculus, UniProt Q01776); assay: LHRH-receptor binding assay (displacement of [125I] cetrorelix on alpha T3-1 cells); settings: WO 2006/005484-substance 75 = 100%
T1 construct: alpha T3-1 cell line with endogenous GnRH receptor expression; endogenous in cells; host or cells: alpha T3-1 cells (intact cell suspension)
T1 sequence (Q01776 1-327): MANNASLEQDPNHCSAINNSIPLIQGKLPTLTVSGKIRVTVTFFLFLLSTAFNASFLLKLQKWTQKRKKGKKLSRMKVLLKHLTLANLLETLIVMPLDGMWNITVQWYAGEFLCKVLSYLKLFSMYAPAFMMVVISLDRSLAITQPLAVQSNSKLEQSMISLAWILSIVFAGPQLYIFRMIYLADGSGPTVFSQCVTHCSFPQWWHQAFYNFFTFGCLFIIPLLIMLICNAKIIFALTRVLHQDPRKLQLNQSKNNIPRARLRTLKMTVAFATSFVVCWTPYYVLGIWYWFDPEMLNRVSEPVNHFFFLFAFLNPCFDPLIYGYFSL
Protocol: For LHRH receptor binding studies, an assay system using alpha T3-1 cell line with endogenous GnRH receptor expression was employed (Windle et al., Mol. Endocrinol. 1990, 4(4): 597-603).
Iodinated cetrorelix was used as a tracer with about 80% of peptide capable of specific receptor association.
For displacement binding assays, the cells were incubated with approximately 200 pM [^125l] cetrorelix and different concentrations of unlabeled test compounds as competitor. The cell suspension in binding medium was layered on top of silicon/paraffin oil, incubated for 60 min at 37° C. and separated by centrifugation. The tips of the tubes containing the cell pellet were cut off, subsequently cell pellet and supernatant were analyzed by gamma-radiation analysis.
The amount of unspecific binding was determined by including unlabeled cetrorelix at 1 μM final concentration and was typically ≦10% of total binding. IC50 values were calculated by using the GraphPad Prism analysis program (GraphPad Software Inc.).

[4] = system: plasma testosterone; assay: Testosterone suppression experiment (plasma testosterone ELISA); type: in vivo, rat; settings: male Wistar rats, po in Solutol HS15/PEG300 (3:1), samples up to 24 h post-dose
Protocol: Male Wistar rats weighing 248-296 g (Janvier, France) were used in the present study. Animals were housed in a temperature-controlled room (20-22° C.) and maintained in a 12 h light/12 h dark cycle. Food and water were available ad libitum.
Rats were anaesthetised with a ketamine (135 mg/kg)/xylazine (10 mg/kg) mixture, and cannulated with silicone tubing via the right jugular vein. Prior to the first blood sampling, animals were connected to a counterbalanced system and tubing, to perform blood sampling in the freely moving rat.
The dosing solutions were prepared immediately before application. […]
The concentrations of testosterone in the rat plasma samples were determined using the Testosterone ELISA (EIA-1559) from DRG Instruments according to the manufacturer's instructions. […] The plate was read within the next 30 min with a Spectramax Plus (Molecular Devices) at 450 nm. The concentration of testosterone in the samples was calculated from the standard curve and is inversely proportional to the optical density measured.
Due to the pulsatile release of testosterone in intact rats, two pre-treatment samples ere collected to establish baseline values prior the administration of the compound. […] The pre-treatment mean value was compared to the testosterone levels measured after application.

[5] = rat, plasma, male Wistar rats, oral, 5 mg/kg, mixture of both compounds in Solutol HS 15/PEG300 (3:1)

Row | Compound | Normalized microsomal stability [2] | Normalized Affinity [3] | also measured
1 | CCC(C)[C@H](NC(=O)Cc1ccccc1F)C(=O)N[C@]1(C(=O)N[C@H](C(=S)NCC2CCOCC2)C(C)CC)CCc2[nH]c3c(C(F)(F)F)cccc3c2C1 (stereo partly drawn) [Compound 52, (R)-3-{(S)-2-[2-(2-Fluoro-phenyl)-acetylamino]-3-methyl-pentanoylamino}-8-trifluoromethyl-2,3,4,9-tetrahydro-1H-carbazole-3-carboxylic acid {(S)-2-methyl-1-[(tetrahydro-pyran-4-ylmethyl)-thiocarbamoyl]-butyl}-amide] | 178% | 218% | AUC(0-t) [1, 5]: 306 ng·h/mL; Cmax [1, 5]: 38.2 ng/mL; Tmax [1, 5]: 4 h; higher AUC compared to the pertinent prior art substance (indicative for bioavailability) ([1]; versus WO 2006/005484-substance 76, rats, oral 5 mg/kg): more than 300%
2 | CCC(C)[C@H](NC(=O)Cc1ccccc1F)C(=O)N[C@]1(C(=O)N[C@H](C(=S)NCc2ccncc2)C(C)CC)CCc2[nH]c3c(C(F)(F)F)cccc3c2C1 (stereo partly drawn) [Compound 60, (R)-3-{(S)-2-[2-(2-Fluoro-phenyl)-acetylamino]-3-methyl-pentanoylamino}-8-trifluoromethyl-2,3,4,9-tetrahydro-1H-carbazole-3-carboxylic acid {(S)-2-methyl-1-[(pyridin-4-ylmethyl)-thiocarbamoyl]-butyl}-amide] |  | 247% | 
3 | CCC(C)[C@H](NC(=O)Cc1ccccc1F)C(=O)N[C@]1(C(=O)N[C@H](C(=O)Nc2ccc(OC)c(O)c2)C(C)CC)CCc2[nH]c3c(C(F)(F)F)cccc3c2C1 (stereo partly drawn) [Compound 69, (R)-3-{(S)-2-[2-(2-Fluoro-phenyl)-acetylamino]-3-methyl-pentanoylamino}-8-trifluoromethyl-2,3,4,9-tetrahydro-1H-carbazole-3-carboxylic acid [(S)-1-(3-hydroxy-4-methoxy-phenylcarbamoyl)-2-methyl-butyl]-amide] | 1041% | 529% | 
4 | CCC(C)[C@H](NC(=O)Cc1ccccc1F)C(=O)N[C@]1(C(=O)N[C@H](C(=O)Nc2ccc(OC)cc2O)C(C)CC)CCc2[nH]c3c(C(F)(F)F)cccc3c2C1 (stereo partly drawn) [Compound 71, (R)-3-{(S)-2-[2-(2-Fluoro-phenyl)-acetylamino]-3-methyl-pentanoylamino}-8-trifluoromethyl-2,3,4,9-tetrahydro-1H-carbazole-3-carboxylic acid [(S)-1-(2-hydroxy-4-methoxy-phenylcarbarnoyl)-2-methyl-butyl]-amide] |  | 411% | 
5 | CCC(C)[C@H](NC(=O)Cc1ccccc1F)C(=O)N[C@]1(C(=O)N[C@H](C(=S)NCCCn2ccnc2)C(C)CC)CCc2[nH]c3c(C(F)(F)F)cccc3c2C1 (stereo partly drawn) [Compound 74, (R)-3-{(S)-2-[2-(2-Fluoro-phenyl)-acetylamino]-3-methyl-pentanoylamino}-8-trifluoromethyl-2,3,4,9-tetrahydro-1H-carbazole-3-carboxylic acid [(S)-1-(3-imidazol-1-yl-propylthiocarbamoyl)-2-methyl-butyl]-amide] | 1889% | 247% | 
6 | CCC(C)[C@H](NC(=O)Cc1ccccc1F)C(=O)N[C@]1(C(=O)N[C@H](C(=S)NCCN2CCOCC2)C(C)CC)CCc2[nH]c3c(C(F)(F)F)cccc3c2C1 (stereo partly drawn) [compound 54 (TFA salt), (R)-3-{(S)-2-[2-(2-Fluoro-phenyl)-acetylamino]-3-methyl-pentanoylamino}-8-trifluoromethyl-2,3,4,9-tetrahydro-1H-carbazole-3-carboxylic acid [(S)-2-methyl-1-(2-morpholin-4-yl-ethylthiocarbamoyl)-butyl]-amide] |  | 247% | mean plasma testosterone concentration over time (FIG. 2) [4]: testosterone suppression
7 | CCC(C)[C@H](NC(=O)Cc1ccccc1F)C(=O)N[C@]1(C(=O)N[C@H](C(=S)NCc2nnc(C)o2)C(C)CC)CCc2[nH]c3c(C(F)(F)F)cccc3c2C1 (stereo partly drawn) [compound 118, (R)-3-{(S)-2-[2-(2-Fluoro-phenyl)-acetylamino]-3-methyl-pentanoylamino}-8-trifluoromethyl-2,3,4,9-tetrahydro-1H-carbazole-3-carboxylic acid {(S)-2-methyl-1-[(5-methyl-[1,3,4]oxadiazol-2-ylmethyl)-thiocarbamoyl]-butyl}-amide] |  | 285% | 
8 | CCC(C)[C@H](NC(=O)Cc1ccccc1F)C(=O)N[C@]1(C(=O)N[C@H](C(=O)Nc2nnn(C(C)(C)C)n2)C(C)CC)CCc2[nH]c3c(C(F)(F)F)cccc3c2C1 (stereo partly drawn) [compound 178, (R)-3-{(S)-2-[2-(2-Fluoro-phenyl)-acetylamino]-3-methyl-pentanoylamino}-8-trifluoromethyl-2,3,4,9-tetrahydro-1H-carbazole-3-carboxylic acid [(S)-1-(2-tert-butyl-2H-tetrazol-5-ylcarbamoyl)-2-methyl-butyl]-amide] |  | 370% | 
